Laboratory results reported in patent EP0908457B1, “3-(1,2-benzisothiazol- and isoxazol-5-Y1)-2,4(1H,3H)-pyrimidinedione or thione and 3-(1,2-benzisothiazol- and isoxazol-5-y1)-4(3H)-pyrimidinone or thione herbicidal agents” (BASF AKTIENGESELLSCHAFT, priority 1997, dated 1999).

Experiments:
[1] = test system: Cyperus iria; experiment: Preemergence weed control under flooded paddy conditions, CYPIR (Rice Flatsedge); format: in vivo; settings: flooded paddy; note: meaning of each grade not given here
[2] = test system: Oryza sativa, (L.) Tebonnet; experiment: Rice tolerance to post-transplant applications under flooded paddy conditions (Example 187), ORYSAT (Rice, Tebonnet); for herbicidal effect rating ORYSAT: meaning of each grade not given here
[3] = test system: Sagittaria pygmaea, L.; experiment: Preemergence weed control under flooded paddy conditions, SAGPY (Arrowhead (Pygmaea)); format: in vivo; settings: flooded paddy; note: meaning of each grade not given here
[4] = test system: Cyperus serotinus, Rottb.; experiment: Preemergence weed control under flooded paddy conditions, CYPSE (Flatsedge); format: in vivo; note: meaning of each grade not given here
[5] = test system: Monochoria vaginalis, Presl.; experiment: Preemergence weed control under flooded paddy conditions, MOOVA (Monochoria); format: in vivo; settings: flooded paddy; note: meaning of each grade not given here
[6] = test system: Echinochloa oryzoides (Ard.) Fritsch.; experiment: Preemergence weed control under flooded paddy conditions, ECHORC (Watergrass (Calif.)); format: in vivo; settings: flooded paddy; note: meaning of each grade not given here
[7] = Rate 0.0320 kg/ha, preemergence, rated 3-4 weeks after treatment
[8] = Rate 0.0620 kg/ha, preemergence, rated 3-4 weeks after treatment
[9] = Rate 0.1250 kg/ha, preemergence, rated 3-4 weeks after treatment
[10] = Rate 0.2500 kg/ha, preemergence, rated 3-4 weeks after treatment
[11] = 0.0313 kg/ha, preemergence weeds, rated three to four weeks after treatment
[12] = 0.0625 kg/ha, preemergence weeds, rated three to four weeks after treatment
[13] = 0.1250 kg/ha, preemergence weeds, rated three to four weeks after treatment
[14] = 0.2500 kg/ha, preemergence weeds, rated three to four weeks after treatment
[15] = Rate 0.0320 kg/ha, preemergence weeds, rated three to four weeks after treatment
[16] = Rate 0.0620 kg/ha, preemergence weeds, rated three to four weeks after treatment
[17] = Rate 0.1250 kg/ha, preemergence weeds, rated three to four weeks after treatment
[18] = Rate 0.2500 kg/ha, preemergence weeds, rated three to four weeks after treatment
[19] = Rate 0.0320 kg/ha, rated three to four weeks after treatment
[20] = Rate 0.0620 kg/ha, rated three to four weeks after treatment
[21] = Rate 0.1250 kg/ha, rated three to four weeks after treatment
[22] = Rate 0.2500 kg/ha, rated three to four weeks after treatment
[23] = Rate 0.0320 kg/ha, preemergence, rated three to four weeks after treatment
[24] = Rate 0.0620 kg/ha, preemergence, rated three to four weeks after treatment
[25] = Rate 0.1250 kg/ha, preemergence, rated three to four weeks after treatment
[26] = Rate 0.2500 kg/ha, preemergence, rated three to four weeks after treatment

CC=CCOC(=O)C(C)(C)Oc1ccc(C)cc1-c1nsc2ccc(-n3c(=O)cc(C(F)(F)F)n(C)c3=O)cc12 [Example 529, Propionic acid, 2-{{2-{5-[3,6-dihydro-3-methyl-2,6-dioxo-4-(trifluoromethyl)-1(2H)-pyrimidinyl]-1,2-benzisothiazol-3-yl}-p-tolyl}oxy}-2-methyl-, 2-butenyl ester] was tested, and the “herbicidal effect rating, CYPIR” value [1, 7] was 3.0, the “herbicidal effect rating, CYPIR” value [1, 8] was 3.0 and the “herbicidal effect rating, CYPIR” value [1, 9] was 3.0. For the same compound, the “herbicidal effect rating, CYPIR” value [1, 10] was 0.0, the “herbicidal effect rating ORYSAT” value ([2]; Rate 0.0320 kg/ha, rated 3-4 weeks after treatment) was 0.0 and the “herbicidal effect rating ORYSAT” value ([2]; Rate 0.0620 kg/ha, rated 3-4 weeks after treatment) was 0.0. The “herbicidal effect rating ORYSAT” value ([2]; Rate 0.1250 kg/ha, rated 3-4 weeks after treatment) was 3.0, the “herbicidal effect rating ORYSAT” value ([2]; Rate 0.2500 kg/ha, rated 3-4 weeks after treatment) was 9.0 and the “herbicidal effect rating, SAGPY” value [3, 7] was 9.0. For the same compound, the “herbicidal effect rating, SAGPY” value [3, 8] was 9.0, the “herbicidal effect rating, SAGPY” value [3, 9] was 9.0 and the “herbicidal effect rating, SAGPY” value [3, 10] was 9.0. For the same compound, the “herbicidal effect rating, CYPSE” value [4, 7] was 0.0, the “herbicidal effect rating, CYPSE” value [4, 8] was 0.0 and the “herbicidal effect rating, CYPSE” value [4, 9] was 0.0. For the same compound, the “herbicidal effect rating, CYPSE” value [4, 10] was 0.0, the “herbicidal effect rating, MOOVA” value [5, 7] was 3.0 and the “herbicidal effect rating, MOOVA” value [5, 8] was 3.0. The “herbicidal effect rating, MOOVA” value [5, 9] was 3.0, the “herbicidal effect rating, MOOVA” value [5, 10] was 0.0 and the “herbicidal effect rating, ECHORC” value [6, 7] was 7.0. For the same compound, the “herbicidal effect rating, ECHORC” value [6, 8] was 9.0, the “herbicidal effect rating, ECHORC” value [6, 9] was 9.0 and the “herbicidal effect rating, ECHORC” value [6, 10] was 9.0.

For C=CCOCc1nsc2ccc(-n3c(=O)cc(C(F)(F)F)n(C)c3=O)cc12 [Example 196, 3-{3-[(Allyloxy)methyl]-1,2-benzisothiazol-5-yl}-1-methyl-6-(trifluoromethyl)-2,4(1H,3H)-pyrimidinedione], the “herbicidal effect rating, CYPIR” value [1, 11] was 0.0, the “herbicidal effect rating, CYPIR” value [1, 12] was 0.0 and the “herbicidal effect rating, CYPIR” value [1, 13] was 1.0. The “herbicidal effect rating, CYPIR” value [1, 14] was 4.0, the “herbicidal effect rating, ORYSAT (rice tolerance)” value (from here on “herbicidal effect rating, ORYSAT”) ([2]; 0.0313 kg/ha, rated three to four weeks after treatment) was 4.0 and the “herbicidal effect rating, ORYSAT” value ([2]; 0.0625 kg/ha, rated three to four weeks after treatment) was 6.0. The “herbicidal effect rating, ORYSAT” value ([2]; 0.1250 kg/ha, rated three to four weeks after treatment) was 8.0, the “herbicidal effect rating, ORYSAT” value ([2]; 0.2500 kg/ha, rated three to four weeks after treatment) was 8.0 and the “herbicidal effect rating, SAGPY” value [3, 11] was 0.0. For the same compound, the “herbicidal effect rating, SAGPY” value [3, 12] was 0.0, the “herbicidal effect rating, SAGPY” value [3, 13] was 0.0 and the “herbicidal effect rating, SAGPY” value [3, 14] was 0.0. For the same compound, the “herbicidal effect rating, CYPSE” value [4, 11] was 2.0, the “herbicidal effect rating, CYPSE” value [4, 12] was 4.0 and the “herbicidal effect rating, CYPSE” value [4, 13] was 6.0. For the same compound, the “herbicidal effect rating, CYPSE” value [4, 14] was 9.0, the “herbicidal effect rating, MOOVA” value [5, 11] was 9.0 and the “herbicidal effect rating, MOOVA” value [5, 12] was 9.0. For the same compound, the “herbicidal effect rating, MOOVA” value [5, 13] was 9.0, the “herbicidal effect rating, MOOVA” value [5, 14] was 9.0 and the “herbicidal effect rating, ECHORC” value [6, 11] was 0.0. The “herbicidal effect rating, ECHORC” value [6, 12] was 2.0, the “herbicidal effect rating, ECHORC” value [6, 13] was 4.0 and the “herbicidal effect rating, ECHORC” value [6, 14] was 4.0.

In the case of Cn1c(C(F)(F)F)cc(=O)n(-c2ccc3snc(-c4ccccc4OCC(=O)O)c3c2)c1=O [Example 312, Acetic acid, {o-{5-[3,6-dihydro-3-methyl-2,6-dioxo-4-(trifluoromethyl)-1(2H)-pyrimidinyl]-1,2-benzisothiazol-3-yl}phenoxy}-], the “herbicidal effect rating, CYPIR” value [1, 15] was 4.5, the “herbicidal effect rating, CYPIR” value [1, 16] was 6.5 and the “herbicidal effect rating, CYPIR” value [1, 17] was 9.0. For the same compound, the “herbicidal effect rating, CYPIR” value [1, 18] was 9.0, the “herbicidal effect rating ORYSAT” value [2, 19] was 5.0 and the “herbicidal effect rating ORYSAT” value [2, 20] was 6.5. The “herbicidal effect rating ORYSAT” value [2, 21] was 7.0, the “herbicidal effect rating ORYSAT” value [2, 22] was 7.5 and the “herbicidal effect rating, SAGPY” value [3, 15] was 0.0. The “herbicidal effect rating, SAGPY” value [3, 16] was 2.0, the “herbicidal effect rating, SAGPY” value [3, 17] was 5.5 and the “herbicidal effect rating, SAGPY” value [3, 18] was 6.5. For the same compound, the “herbicidal effect rating, CYPSE” value [4, 15] was 0.0, the “herbicidal effect rating, CYPSE” value [4, 16] was 3.5 and the “herbicidal effect rating, CYPSE” value [4, 17] was 4.5. The “herbicidal effect rating, CYPSE” value [4, 18] was 6.0, the “herbicidal effect rating, MOOVA” value [5, 15] was 4.5 and the “herbicidal effect rating, MOOVA” value [5, 16] was 6.0. The “herbicidal effect rating, MOOVA” value [5, 17] was 9.0, the “herbicidal effect rating, MOOVA” value [5, 18] was 9.0 and the “herbicidal effect rating, ECHORC” value [6, 15] was 6.0. The “herbicidal effect rating, ECHORC” value [6, 16] was 6.5, the “herbicidal effect rating, ECHORC” value [6, 17] was 9.0 and the “herbicidal effect rating, ECHORC” value [6, 18] was 9.0.

For CN(C)C(=O)c1nsc2ccc(-n3c(=O)cc(C(F)(F)F)n(C)c3=O)cc12 [Example 329, 1,2-Benzisothiazole-3-carboxamide, 5-[3,6-dihydro-3-methyl-2,6-dioxo-4-(trifluoromethyl)-1(2H)-pyrimidinyl]-N,N-dimethyl-], the “herbicidal effect rating, CYPIR” value [1, 15] was 0.0, the “herbicidal effect rating, CYPIR” value [1, 16] was 0.0 and the “herbicidal effect rating, CYPIR” value [1, 17] was 0.0. For the same compound, the “herbicidal effect rating, CYPIR” value [1, 18] was 0.0, the “herbicidal effect rating ORYSAT” value [2, 19] was 3.0 and the “herbicidal effect rating ORYSAT” value [2, 20] was 3.0. For the same compound, the “herbicidal effect rating ORYSAT” value [2, 21] was 3.0, the “herbicidal effect rating ORYSAT” value [2, 22] was 3.0 and the “herbicidal effect rating, SAGPY” value [3, 15] was 3.0. For the same compound, the “herbicidal effect rating, SAGPY” value [3, 16] was 4.0, the “herbicidal effect rating, SAGPY” value [3, 17] was 4.0 and the “herbicidal effect rating, SAGPY” value [3, 18] was 4.0. The “herbicidal effect rating, CYPSE” value [4, 15] was 0.0, the “herbicidal effect rating, CYPSE” value [4, 16] was 0.0 and the “herbicidal effect rating, CYPSE” value [4, 17] was 0.0. For the same compound, the “herbicidal effect rating, CYPSE” value [4, 18] was 0.0, the “herbicidal effect rating, MOOVA” value [5, 15] was 9.0 and the “herbicidal effect rating, MOOVA” value [5, 16] was 9.0. The “herbicidal effect rating, MOOVA” value [5, 17] was 9.0, the “herbicidal effect rating, MOOVA” value [5, 18] was 9.0 and the “herbicidal effect rating, ECHORC” value [6, 15] was 2.0. For the same compound, the “herbicidal effect rating, ECHORC” value [6, 16] was 3.0, the “herbicidal effect rating, ECHORC” value [6, 17] was 3.0 and the “herbicidal effect rating, ECHORC” value [6, 18] was 3.0.

In the case of CC#CCOC(=O)c1nsc2ccc(-n3c(=O)cc(C(F)(F)F)n(C)c3=O)cc12 [Example 384, 1,2-Benzisothiazole-3-carboxylic acid, 5-[3,6-dihydro-3-methyl-2,6-dioxo-4-(trifluoromethyl)-1(2H)-pyrimidinyl]-, 2-butynyl ester], the “herbicidal effect rating, CYPIR” value [1, 23] was 4.0, the “herbicidal effect rating, CYPIR” value [1, 24] was 7.0 and the “herbicidal effect rating, CYPIR” value [1, 25] was 8.0. For the same compound, the “herbicidal effect rating, CYPIR” value [1, 26] was 8.0, the “herbicidal effect rating ORYSAT” value [2, 19] was 4.0 and the “herbicidal effect rating ORYSAT” value [2, 20] was 4.0. For the same compound, the “herbicidal effect rating ORYSAT” value [2, 21] was 7.0, the “herbicidal effect rating ORYSAT” value [2, 22] was 6.0 and the “herbicidal effect rating, SAGPY” value [3, 23] was 5.0. For the same compound, the “herbicidal effect rating, SAGPY” value [3, 24] was 6.0, the “herbicidal effect rating, SAGPY” value [3, 25] was 6.0 and the “herbicidal effect rating, SAGPY” value [3, 26] was 6.0. For the same compound, the “herbicidal effect rating, CYPSE” value [4, 23] was 7.0, the “herbicidal effect rating, CYPSE” value [4, 24] was 7.0 and the “herbicidal effect rating, CYPSE” value [4, 25] was 7.0. The “herbicidal effect rating, CYPSE” value [4, 26] was 7.0, the “herbicidal effect rating, MOOVA” value [5, 23] was 9.0 and the “herbicidal effect rating, MOOVA” value [5, 24] was 9.0. For the same compound, the “herbicidal effect rating, MOOVA” value [5, 25] was 9.0, the “herbicidal effect rating, MOOVA” value [5, 26] was 9.0 and the “herbicidal effect rating, ECHORC” value [6, 23] was 2.0. For the same compound, the “herbicidal effect rating, ECHORC” value [6, 24] was 4.0, the “herbicidal effect rating, ECHORC” value [6, 25] was 4.0 and the “herbicidal effect rating, ECHORC” value [6, 26] was 6.0.
